In US20090117089A1, “GLYCOLIPIDS AND ANALOGUES THEREOF AS ANTIGENS FOR NK T CELLS” (The Rockefeller University, priority 2005, published 2009):

Columns and labels:
CD8+ P1CTL T cells = assay: Proliferation and differentiation of P1A-specific P1CTL CD8+ T cells; assay type: in vivo, mouse
Procedure: CD8^+ P1A-specific, T cells were prepared from meshed cell suspensions of TCR transgenic lymph nodes and spleen by depleting B220, CD4, F4/80 and MHC class II-expressing cells using sheep anti-rat IgG Dynabeads®. For CFSE labeling (Molecular Probes), the cells at 10^7/ml in PBS were incubated with 5 μM CFSE for 10 min at 37° C. The reaction was stopped by washing three times with PBS.
(§1) 2×10^7 irradiated J558-Ld^− cells, were injected i.v. or s.c. into Balb/c mice with or without α-Gal Cer as a DC maturation stimulus. In some experiments we compared α-Gal Cer to agonistic anti-CD40 mAb (1C10, 25 μg i.p.) or the toll like receptor ligands, poly IC ([…], Invivogen) or lipopolysaccharide (20 μgm, Sigma). The mice had been given CFSE-labeled PICTL CD8^+ T cells i.v. 1 d earlier, or were naive animals. In some experiments, mice were sacrificed 3 d later, and T cell division and activation in spleen were analyzed by flow cytometry. Additionally, 7 d or 2 months later, 5×10^6 live J558 tumor cells were inoculated subcutaneously. 5×10^6 Meth A fibrosarcoma was used as a control tumor for challenge. Tumor cell growth was measured with calipers every other day. Mice were scored positive for tumor as soon as tumors became palpable and grew progressively. Mice were euthanized when tumor size exceeded 400 mm^2.
(§2) T-cell division, phagocytosis of CFSE-labeled tumor cells and acquisition of cell surface-activation markers were determined by flow cytometry. Briefly, spleens were harvested and low-density splenocytes were stained with CD11c-APC and CD8α-PE, CD11b-PE, B220-PE or CD4-PE for the up-take examination. For in vivo proliferation of P1CTL T-cells, spleens were harvested and the splenocytes suspension was staining with CD8α-Cy, Vα8α-PE, CD25-PE, CD62L-PE. For intracellular cytokine staining, splenocytes were stimulated in vitro with 1 µg/ml P1A peptide in 5 μg/ml brefeldin A (Sigma-Aldrich) at 37° C. for 4 hrs. The cells were first stained with CD8α-Cy-Chrome™, fixed and permeabilized with cytofix-cytoperm buffer (BD Biosciences), and stained with PE conjugated mAbs to IL-2 or IFN-γ.

spleen CD11c+ DCs = assay: DC maturation in vivo (surface markers, flow cytometry); set-up: species or system mouse; details: for dose dependence of DC maturation: 2, 0.2, 0.02 and 0.002 μg/mouse; for DC maturation response compared with αCD40 mAb and polyIC: 15 h following i.v. administration; for DC maturation in Jα281−/− mice: mice lacking NKT cells; for phenotypic changes of DC maturation (CD40, CD86, MHC class II, B7-H1, B7-DC up, CD119 down): mouse, in vivo; for induction of splenic DC maturation in vivo: surface activation markers
Procedure: as §1, §2
Flow cytometry. Acquisition of cell surface-activation markers was determined by flow cytometry. […] Spleen CD11c+ DCs were isolated using anti-CD11c magnetic beads and stained with CD11c-FITC, CD8α− allophycocyanin, and PE-Conjugated I-Ad, CD40, CD80, CD86, CD119, B7-H1 and B7-DC. We used a FACSCalibur™ with data analysis in FlowJo (Tree Star).

[1] = test system: human NKT cells (Vα24/Vβ11); assay: Human dendritic cell mediated NKT cell expansion; assay type: cell-based; details: DCs loaded with glycolipid; data not shown
[2] = test system: DCs from bone marrow progenitors; assay: Direct DC maturation from bone marrow progenitors in culture; assay type: cell-based; details: data not shown
[3] = molecular target: T1, human CD1d dimers / invariant T cell receptor of human NKT cells (Homo sapiens, UniProt P15813); assay: In vitro CD1d-dimer assay using a human NKT cell line; assay type: binding; details: dimers loaded with 40 μM glycolipid
T1 construct: soluble divalent human CD1d-IgG1 fusion protein; IgG1 (immunoglobulin fusion partner that makes the protein divalent); purchased BD Pharmingen / BD Biosciences (DimerX)
Procedure: One mg of soluble divalent human CD1d-IgG1 fusion protein (human CD1d-IgG1 dimers, BD Pharmingen) were incubated overnight with […] of each glycolipid at 32° C. and at neutral pH according to the manufacturer's protocol. The glycolipid-loaded CD1d-IgG1 dimers were incubated with human NKT cells at 4° C. for 60 minutes, followed by incubation with PE-coupled anti-mouse IgG1 mAb (A85-1). The cells were also surface stained with a PerCP-coupled anti-CD3 mAb (BD Pharmingen, San Diego, Calif.).
CD1d-dimer binding assay. CD1d dimer (DimerX, BD Biosciences) was incubated overnight with 40 μM of each glycolipid at 32° C. and at neutral pH according to the manufacturer's protocol. The loaded CD1d dimers were incubated with a human NKT cell line at 4° C. for 60 min, followed by incubation with APC-conjugated secondary antibody. The cells were also co-stained with mAbs against the invariant NKT cell receptor (Vα24/Vβ11). At least 2×10^5 lymphocyte-gated events were acquired to allow reliable estimation of NKT cells.

| Compound | stimulation of naïve CD8+ P1CTL T cells in culture by isolated DCs (CD8+ P1CTL T cells; DCs from mice given dying J558 with α-Gal Cer) | P1CTL proliferation in vivo after DC transfer (CD8+ P1CTL T cells; DCs isolated 4 hours after immunization, 3 days) | IFN-γ and IL-2 production on restimulation with P1A peptide (CD8+ P1CTL T cells; T cells stimulated in vivo in presence of α-Gal Cer) | P1CTL T cell proliferation in vivo (CD8+ P1CTL T cells; irradiated J558− plus α-Gal Cer vs J558− alone, 3 days) | dose dependence of DC maturation (spleen CD11c+ DCs) | DC maturation response compared with αCD40 mAb and polyIC (spleen CD11c+ DCs) | surface markers on CD11c+CD8− DCs (spleen CD11c+ DCs; 15 hours after i.v. glycolipid) | marker expression on DCs that captured dying tumor cells (CD11c+ CFSE+) (spleen CD11c+ DCs; co-injection with irradiated J558− cells i.v.) | maturation of total CD11c+ splenic DCs (MHC II, CD80, CD86, B7-H1, B7-DC) (spleen CD11c+ DCs; co-injection with irradiated J558− cells i.v., 5 hours) | DC maturation in Jα281−/− mice (spleen CD11c+ DCs) | phenotypic changes of DC maturation (CD40, CD86, MHC class II, B7-H1, B7-DC up, CD119 down) (spleen CD11c+ DCs) | induction of splenic DC maturation in vivo (spleen CD11c+ DCs) | production of IFNγ, IL-13 and IL-2 by NKT cells [1] | direct stimulation of DC maturation [2] | binding of loaded CD1d dimers to Vα24/Vβ11 invariant TCR expressing NKT cells [3] | upregulation of activation markers on CD11c+CD8+ DCs (spleen CD11c+ DCs; 15 hours after i.v. glycolipid, 2 or 0.2 μg per mouse) |
| --- | --- | --- | --- | --- | --- | --- | --- | --- | --- | --- | --- | --- | --- | --- | --- | --- |
| CCCCCCCCCCCCCCCCCCCCCCCCCC(=O)N[C@@H](CO[C@H]1O[C@H](CO)[C@H](O)[C@H](O)[C@H]1O)[C@H](O)[C@H](O)CCCCCCCCCCCCCC [α-GalCer, 2S,3S,4R-1-O(α-galactopyranosyl)-2(N-hexacosanoylamino)-1,3,4-octadecanetriol] | much more effective at stimulating proliferation of naïve CD8^+ T cells in culture | P1CTL proliferation was detected only in response to DCs from mice given tumor with α-Gal Cer | significantly more IFN-γ and IL-2 | proliferated more extensively | correlated with the dose of glycolipid administered | paralleled and exceeded those seen with other known stimuli for DC maturation in vivo | induced strong upregulation of CD86, B7-H1 and B7-DC but only slightly upregulated MHC II, CD40 and CD80 | strongly upregulated the expression of antigen presenting and costimulatory molecules | resulted in the maturation of the total CD11c^+ DC population | did not mature | induced similar phenotypic changes of maturation | rapid and efficient inducers of splenic DC maturation in vivo | induced rapid production of IFNγ, IL-13 and IL-2 | unable to directly stimulate DC maturation from bone marrow progenitors in culture |  |  |
| 3-O-sulfo-alpha-galactosylceramide [Compound 24] |  |  |  |  | correlated with the dose of glycolipid administered | paralleled and exceeded those seen with other known stimuli for DC maturation in vivo | induced strong upregulation of CD86, B7-H1 and B7-DC but only slightly upregulated MHC II, CD40 and CD80 |  |  | did not mature | induced similar phenotypic changes of maturation | rapid and efficient inducers of splenic DC maturation in vivo | induced rapid production of IFNγ, IL-13 and IL-2 | unable to directly stimulate DC maturation from bone marrow progenitors in culture | to a lesser extent than α-GalCer | comparable to αGalCer |
